Source: PubChem BioAssay (NCI)
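Grown in 96-well plates, cells were treated for 48 hours with each compound at five concentrations. Insufficient inhibition: endpoint recorded as highest concentration tested. Here, GI50 denotes the concentration required for 50% inhibition of growth. Definition used: TGI = concentration required for complete inhibition of growth.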

How the values were obtained:
Test in all cases: DTP human tumour cell line panel, 48 h
EKVX NSCLC = system: EKVX NSCLC
OVCAR-5 ovarian = system: OVCAR-5 ovarian
IGROV1 ovarian = system: IGROV1 ovarian
786-0 renal = system: 786-0 renal
HCT-15 colon = system: HCT-15 colon
OVCAR-8 ovarian = system: OVCAR-8 ovarian
CAKI-1 renal = system: CAKI-1 renal
UACC-257 melanoma = system: UACC-257 melanoma
HL-60(TB) leukemia = system: HL-60(TB) leukemia
NCI/ADR-RES ovarian = system: NCI/ADR-RES ovarian

SMILES	TGI (EKVX NSCLC) [µM]	TGI (OVCAR-5 ovarian) [µM]	TGI (IGROV1 ovarian) [µM]	TGI (786-0 renal) [µM]	TGI (HCT-15 colon) [µM]	TGI (OVCAR-8 ovarian) [µM]	TGI (CAKI-1 renal) [µM]	TGI (UACC-257 melanoma) [µM]	TGI (HL-60(TB) leukemia) [µM]	GI50 (OVCAR-5 ovarian) [µM]	GI50 (IGROV1 ovarian) [µM]	GI50 (786-0 renal) [µM]	GI50 (HCT-15 colon) [µM]	GI50 (NCI/ADR-RES ovarian) [µM]	TGI (NCI/ADR-RES ovarian) [µM]	GI50 (OVCAR-8 ovarian) [µM]	GI50 (HL-60(TB) leukemia) [µM]	GI50 (CAKI-1 renal) [µM]	GI50 (UACC-257 melanoma) [µM]	GI50 (EKVX NSCLC) [µM]
Cc1ccc(S(=O)(=O)OCCOCCOCCOCCOCCOS(=O)(=O)c2ccc(C)cc2)cc1	> 100	> 100	> 100	> 100	> 100	88	> 100	77.8	–	–	–	–	–	–	–	–	–	–	–	–
N#CCc1nnc(N)o1	> 100	–	> 100	> 100	> 100	–	> 100	> 100	> 100	–	–	–	–	–	–	–	–	–	–	–
CC(C)=NNC(=S)NC12CC3CC(CC(C3)C1)C2	> 100	> 100	> 100	> 100	> 100	> 100	> 100	> 100	> 100	–	–	–	–	–	–	–	–	–	–	–
Cc1ccc(C2=Nc3ccccc3S(=O)C(c3ccc4c(c3)OCO4)C2)cc1 (stereo not drawn)	> 100	–	> 100	44	–	46.9	> 100	88.4	59.1	–	–	–	–	–	–	–	–	–	–	–
Cc1c2c(nn1-c1ccc(S(=O)(=O)NC(=S)NC(=O)c3ccccc3)cc1)-c1ccccc1CC2	–	> 100	> 100	> 100	> 100	> 100	51.9	47.4	> 100	> 100	> 100	> 100	39.5	> 100	> 100	72.4	3.85	16.1	10.7	–
O=C(O)c1c2c(cc3c(=O)cc(-c4ccccc4)oc13)CCCC2	> 100	> 100	> 100	> 100	> 100	> 100	–	> 100	–	–	–	–	–	–	–	–	–	–	–	–
c1ccc2c(CNCCCCCCCCNCc3cccc4ccccc34)cccc2c1	18.8	4.14	16.2	3.31	3.38	3.5	5.01	3.29	4.64	–	–	–	–	–	–	–	–	–	–	–
COc1ccc(-c2[nH]nc(N)c2-c2cc(OC)c(OC)c(OC)c2)cc1	–	> 100	20.4	> 58.3	> 100	> 100	47.3	> 100	0.0622	0.0659	0.0591	0.0663	0.0345	0.0283	–	0.0459	0.0236	0.0506	8.03	–
O=[N+]([O-])C=C1c2ccccc2-c2ccccc21	37.1	31.4	–	30.3	38.7	34.2	24.5	33.7	23.7	–	–	–	–	–	–	–	–	–	–	–
OCC1CCCC1O (stereo not drawn)	–	> 100	> 100	> 100	> 100	> 100	> 100	> 100	> 100	–	–	–	–	–	> 100	–	–	–	–	–
C=CCOC(=O)Nc1cccn([C@H](CC(C)C)C(=O)NCCC(C)C)c1=O	–	> 100	> 100	> 100	> 100	> 100	> 100	> 100	> 100	> 100	60.4	> 100	84.5	57.9	> 100	> 100	58.9	29	66.5	–
C=C1C(=O)O[C@H]2[C@H]1CC/C(CNC(=O)/C=C/c1ccccc1F)=C\CC[C@@]1(C)O[C@@H]21	5.95	5.15	4.65	3.71	2.49	11.8	2.67	3.59	–	1.9	1.69	1.59	1.01	3.1	26.9	2.95	–	1.3	1.77	1.89
Cn1c(=O)c(Oc2ccc(F)cc2F)cc2cnc(NC3CCOCC3)nc21	–	> 25	> 25	> 25	> 25	> 25	> 25	> 25	> 25	> 25	> 25	> 25	> 25	> 25	> 25	> 25	> 25	> 25	> 25	–
NC(=O)c1cc(Br)ccc1NC(=O)/C=C/c1ccccc1	> 100	> 100	> 100	> 34.8	> 100	> 100	> 100	> 100	4.11	10.3	2.35	3.72	1.38	–	–	14.1	0.876	6.17	24.9	3.27
CCCCCCCCCCCCCCCCN(CC)CC	4.76	4.26	3.36	3.1	3.66	–	3.24	4.98	–	1.94	1.79	1.69	1.88	–	–	–	–	1.69	1.99	2.02
CCOC(=O)CN(c1ccccc1)c1nc(=[N+](C)C)ss1	–	–	–	> 100	56.5	70.1	87.8	96	48.4	–	–	–	–	–	–	–	–	–	–	–
COc1cc(O)c2c(c1)C(=O)C1=C(C2=O)C(O)C[C@@](C)(O)C1 (stereo partly drawn)	13.1	22.2	3.71	9.25	3.61	6.15	14	1.24	1.5	–	–	–	–	–	–	–	–	–	–	–
O=C1c2cc(F)ccc2-c2c1c1ccc([N+](=O)[O-])cc1c(=O)n2CCCBr	> 100	> 100	> 100	9.31	> 100	> 100	> 100	82.6	–	65.5	17.4	1.96	56.8	4.37	41.3	12.2	–	27.3	13.1	> 100
